According to US7435837B2, “Dihydrobenzofuranyl alkanamine derivatives and methods for using same” (Wyeth, priority 2003, dated 2008):

Legend:
[1] = molecular target: T1, human 5-hydroxytryptamine-2C (h5-HT2C) receptor (Homo sapiens, UniProt P28335); test: [125I]DOI binding to membranes of CHO cells expressing the human 5-HT2C receptor; settings: [125I]DOI radioligand, CHO cell membranes, room temperature 60 min; read-out: 5-HT2C Affinity Ki
T1 construct: expressed in transfected cells; host or cells: CHO (Chinese Hamster Ovary) cells; membranes
T1 sequence (P28335 33-458): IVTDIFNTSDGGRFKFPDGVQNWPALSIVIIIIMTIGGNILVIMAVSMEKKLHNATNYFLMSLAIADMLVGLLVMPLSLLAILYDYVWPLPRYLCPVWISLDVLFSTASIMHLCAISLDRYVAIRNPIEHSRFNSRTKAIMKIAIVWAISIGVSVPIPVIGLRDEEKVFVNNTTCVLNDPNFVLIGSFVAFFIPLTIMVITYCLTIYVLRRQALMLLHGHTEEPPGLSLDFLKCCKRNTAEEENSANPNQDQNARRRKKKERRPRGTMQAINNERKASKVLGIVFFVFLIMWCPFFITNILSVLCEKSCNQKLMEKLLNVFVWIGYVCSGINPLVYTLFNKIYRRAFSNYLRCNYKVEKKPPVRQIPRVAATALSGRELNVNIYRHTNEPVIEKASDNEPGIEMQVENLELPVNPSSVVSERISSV

human 5-HT2C receptor = molecular target: T2, human 5-HT2C receptor (Homo sapiens, UniProt P28335); test: 5-HT2C receptor-stimulated calcium mobilization (FLIPR) in CHO cells; format: cell-based; settings: for Emax: CHO, read-out: 5-HT2C Function Emax (%); for Emax / 5-HT2C Function Emax (%): percentage of the response observed with a maximally effective concentration of 5-HT; for EC50: calcium mobilization, CHO cells stably expressing human 5-HT2C, read-out: 5-HT2C Function EC50;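 for all read-outs here: Fluo-3-AM fluorescence read on FLIPR every 1 s, agonist added after 10 baseline reads, response taken as peak minus lowest raw fluorescence count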
T2 sequence (P28335 33-458): T1 sequence (P28335 33-458)

Structure (SMILES): Cc1cccc(C)c1-c1cc(F)cc2c1OC(CN)C2 (racemic) [Example 227, (±)-{[7-(2,6-dimethylphenyl)-5-fluoro-2,3-dihydro-1-benzofuran-2-yl]methyl}amine]
- Ki [1]: 1.5 nM
- Emax (human 5-HT2C receptor): 95%
- EC50 (human 5-HT2C receptor): 3 nM

Structure (SMILES): CNCC1Cc2cccc(-c3ccc(F)cc3)c2O1 (racemic) [Example 419, (±)-[(N-methyl-1-[7-(4-fluorophenyl)-2,3-dihydro-1-benzofuran-2-yl]methanamine]
- Ki [1]: 3.8 nM
- Emax (human 5-HT2C receptor): 80%
- EC50 (human 5-HT2C receptor): 1360 nM

Structure (SMILES): CNCC1Cc2cc(OC)cc(-c3cccc(F)c3F)c2O1 (racemic) [Example 494, (±)-{[7-(2,3-difluorophenyl)-5-methoxy-2,3-dihydro-1-benzofuran-2-yl]methyl}methylamine]
- Ki [1]: 35 nM
- Emax (human 5-HT2C receptor): 60%
- EC50 (human 5-HT2C receptor): 475 nM

Structure (SMILES): NCC1Cc2cccc(-c3ccsc3)c2O1 (single isomer, unassigned; (+)) [Example 45, (+)-1-(7-thien-3-yl-2,3-dihydro-1-benzofuran-2-yl)methanamine]
- Ki [1]: 2 nM
- Emax (human 5-HT2C receptor): 90%
- EC50 (human 5-HT2C receptor): 5 nM

Structure (SMILES): Cc1cc2c(c(-c3cc(Cl)ccc3Cl)c1)OC(CN)C2 (racemic) [Example 300, (±)-{[7-(2,5-dichlorophenyl)-5-methyl-2,3-dihydro-1-benzofuran-2-yl]methyl}amine]
- Ki [1]: 0.1 nM
- Emax (human 5-HT2C receptor): 90%
- EC50 (human 5-HT2C receptor): 3 nM

Structure (SMILES): Cc1ccccc1-c1cccc2c1OC(CN)C2 (racemic) [Example 47, (±)-1-[7-(2-methylphenyl)-2,3-dihydro-1-benzofuran-2-yl]methanamine]
- Ki [1]: 0.4 nM
- Emax (human 5-HT2C receptor): 100%
- EC50 (human 5-HT2C receptor): 5.4 nM

Structure (SMILES): CNCC1Cc2cc(C)cc(-c3ccccc3OC)c2O1 (racemic) [Example 477, (±)-{[7-(2-methoxyphenyl)-5-methyl-2,3-dihydro-1-benzofuran-2-yl]methyl}methylamine]
- Ki [1]: 6.7 nM
- Emax (human 5-HT2C receptor): 80%
- EC50 (human 5-HT2C receptor): 9 nM

Structure (SMILES): CNCC1Cc2cc(C(F)(F)F)cc(-c3ccc(OC)cc3OC)c2O1 (racemic) [Example 526, (±)-N-methyl-1-[7-(2,4-dimethoxyphenyl)-5-(trifluoromethyl)-2,3-dihydro-1-benzofuran-2-yl]methanamine]
- Ki [1]: 25 nM
- Emax (human 5-HT2C receptor): 90%
- EC50 (human 5-HT2C receptor): 50 nM

Structure (SMILES): CNCC1Cc2cc(C)cc(-c3cccc(Cl)c3)c2O1 (racemic) [Example 479, (±)-{[7-(3-chlorophenyl)-5-methyl-2,3-dihydro-1-benzofuran-2-yl]methyl}methylamine]
- Ki [1]: 0.5 nM
- Emax (human 5-HT2C receptor): 80%
- EC50 (human 5-HT2C receptor): 71 nM

Structure (SMILES): CNCC1Cc2cc(C)cc(-c3cccc(OC)c3OC)c2O1 (racemic) [Example 484, (±)-{[7-(2,3-dimethoxyphenyl)-5-methyl-2,3-dihydro-1-benzofuran-2-yl]methyl}methylamine]
- Ki [1]: 0.51 nM
- Emax (human 5-HT2C receptor): 70%
- EC50 (human 5-HT2C receptor): 43 nM

Structure (SMILES): NCC1Cc2cccc(-c3cccc(Cl)c3)c2O1 (single isomer, unassigned; (+)) [Example 66, (+)-1-[7-(3-chlorophenyl)-2,3-dihydro-1-benzofuran-2-yl]methanamine]
- Ki [1]: 5 nM
- EC50 (human 5-HT2C receptor): 250 nM
- 5-HT2C Function Emax (%) (human 5-HT2C receptor): 100%

Structure (SMILES): Cc1cccc(-c2cccc3c2OC(CN)C3)c1 (single isomer, unassigned; (-)) [Example 43, (−)-1-[7-(3-methylphenyl)-2,3-dihydro-1-benzofuran-2-yl]methanamine]
- Ki [1]: 100 nM
- EC50 (human 5-HT2C receptor): 748 nM
- 5-HT2C Function Emax (%) (human 5-HT2C receptor): 80%

Structure (SMILES): NCC1Cc2cccc(-c3ccccc3Cl)c2O1 (racemic) [Example 60, (±)-1-[7-(2-chlorophenyl)-2,3-dihydro-1-benzofuran-2-yl]methanamine]
- Ki [1]: 0.3 nM
- Emax (human 5-HT2C receptor): 100%
- EC50 (human 5-HT2C receptor): 12 nM

Structure (SMILES): COc1cc2c(c(-c3cc(F)ccc3F)c1)OC(CN)C2 (racemic) [Example 366, (±)-{[7-(2,5-difluorophenyl)-5-methoxy-2,3-dihydro-1-benzofuran-2-yl]methyl}amine]
- Ki [1]: 13 nM
- Emax (human 5-HT2C receptor): 80%
- EC50 (human 5-HT2C receptor): 394 nM
